# Experimental data as given in patent publication US20250351832A1, “PHYTOCHEMICALS AS BIOPESTICIDES AND BIOSTIMULANTS” (KAY BEE BIO ORGANICS PVT. LTD., priority 2024, published 2025).
# Read-outs that look alike come from different tables or passages of the source.
# Experiments:
# [1] = system: Spodoptera litura; conditions: Spodoptera litura 3rd instar on cabbage plants, dose 1 ml/gm/lit. spray
# [2] = system: tomato seedlings; experiment: Response of tomato plants, greenhouse growth (Ex. 30); format: in vivo
# [3] = system: Spodoptera litura; experiment: whole plant or invertebrate; conditions: 72 h
# [4] = system: Aphid
# [5] = system: Mealy Bug; conditions: Mealy Bug on cotton leaves, dose 1 ml/gm/lit., 48 Hrs.
# [6] = system: Mite; conditions: Dose 1 ml/gm/lit.; 48 hrs
# [7] = system: Mite; conditions: mite on okra plants, green house, dose 1 ml/gm/lit. spray
# [8] = system: Aphid; conditions: 48 h, 1 mL or g/L
# [9] = system: Thrips
# [10] = cited from earlier work
# [11] = system: Spodoptera litura; conditions: 72 h, 1 mL or g/L
# [12] = system: Mealy Bug; conditions: mealy bug on cotton plants, green house, dose 1 ml/gm/lit. spray
# [13] = system: Aphid; experiment: whole plant or invertebrate; conditions: 48 h
# [14] = system: chili seedlings; experiment: Response of chili plants, greenhouse growth (Ex. 31); format: in vivo
# [15] = system: Alternaria alternata; experiment: In vitro poisoned food technique against fungus (Ex. 20); format: cell-based; conditions: […]
# [16] = system: Thrips; experiment: whole plant or invertebrate; conditions: in Gossypium hirsutum, 48 h
# [17] = system: Thrips; conditions: 48 h, 1 mL or g/L
# [18] = system: Helicoverpa armigera; conditions: Helicoverpa armigera 3rd instar on chickpea plants, dose 1 ml/gm/lit. spray
# [19] = system: Helicoverpa armigera; conditions: Helicoverpa armigera on okra fruits, dose 1 ml/gm/lit., 72 Hrs.
# [20] = 72 hrs, corrected for water control
# [21] = tomato seedlings, 10th day, dose 1 ml/gm/lit
# [22] = tomato seedlings, dose 1 ml/gm/lit, 10th day
# [23] = 48 hrs, corrected for water control
# [24] = Table 13, descriptive, no test described
# [25] = read-out: % Corrected Mortality at 48 Hrs.
# [26] = read-out: % Mortality at 48 Hrs.
# [27] = chili seedlings, dose 1 ml/gm/lit, 10th day
smiles,measurement,setting,value
CCCCC[C@H](O)CC(=O)CCc1ccc(O)c(OC)c1 [Gingerol],% Mortality at 72 Hrs.,[1]; 72 hrs after application,37.50%
same,% Corrected Mortality at 72 Hrs.,[1]; [20],34.21%
same,CCI Pre,[2],12.65
same,Plant Height Pre,[2],5.62 cm
same,Stem Girth Pre,[2],1.35 mm
same,CCI 5th Day,[2]; 120 h,14.63
same,Plant Height 5th Day,[2]; 120 h,6.45 cm
same,Stem Girth 5th Day,[2]; 120 h,1.92 mm
same,CCI 10th Day,[2]; 240 h,16.87
same,Plant Height 10th Day,[2]; 240 h,7.59 cm
same,Root Length % Increase over control,[2]; 240 h,31.77%
same,Stem Girth 10th Day,[2]; 240 h,2.31 mm
same,Plant Height % Increase over pre on 10th Day,[2]; [21],35.05%
same,Stem Girth % Increase over pre on 10th Day,[2]; [21],70.52%
same,CCI % Increase over pre on 10th Day,[2]; [22],33.36%
same,Root Length (cm) 10th Day,[2]; [22],4.38 cm
same,mortality at 1 mL or g/L,[3]; read-out: % Corrected Mortality at 72 Hrs.,36.8%
same,mortality at 1 mL or g/L,[3]; read-out: % Mortality at 72 Hrs.,40%
same,Total No. of dead insect at 48 Hrs.,[4]; 48 h,6.25
same,% Corrected Mortality at 48 Hrs.,"[4]; Dose 1 ml/gm/lit., 48 hrs",57.14%
same,% Mortality at 48 Hrs.,"[4]; Dose 1 ml/gm/lit., 48 hrs",62.50%
same,% Mortality at 48 Hrs.,[5],27.50%
same,% Corrected Mortality at 48 Hrs.,[5]; corrected for water control,23.68%
same,% Corrected Mortality at 48 Hrs.,[6],29.73%
same,% Mortality at 48 Hrs.,[6],35.00%
same,% Mortality at 48 Hrs.,[7]; 48 hrs after application,30.00%
same,% Corrected Mortality at 48 Hrs.,[7]; [23],26.32%
same,Total No. of dead insect at 48 Hrs.,[8],65.00
same,Total No. of dead insect at 48 Hrs.,[9]; 48 h,30.00
same,% Mortality at 48 Hrs.,"[9]; thrips on cotton plants, greenhouse, dose 1 ml/gm/lit. spray, 48 hrs after application",30.00%
same,% Corrected Mortality at 48 Hrs.,"[9]; thrips on cotton plants, greenhouse, dose 1 ml/gm/lit. spray, 48 hrs, corrected for water control",22.22%
same,Antifungal Activity - Mode of action,[10]; [24],More effective in restricting
same,Antioxidant Activity - Mode of action,[10]; [24],High antioxidant activity
same,Bactericidal Activity - Mode of action,[10]; [24],Antibacterial activity
same,Insecticidal Activities - Mode of action,[10]; [24],Exhibit repellent activity
same,Nematicidal Activity - Mode of action,[10]; [24],Suppressed root knot egg
same,Virucidal Activity - Mode of action,[10]; [24],Inhibit viral nucleic
same,Phytotonic Effect,"[10]; Table 13, effect on plants, descriptive",Enhanced plant
same,Total No. of dead insect at 72 Hrs.,[11],4.00
same,% Mortality at 48 Hrs.,[12]; 48 hrs after application,37.50%
same,% Corrected Mortality at 48 Hrs.,[12]; [23],30.56%
same,mortality at 1 mL or g/L,[13]; [25],58.8%
same,mortality at 1 mL or g/L,[13]; [26],65%
same,CCI Pre,[14],9.40
same,Plant Height (cm) Pre,[14],4.05 cm
same,CCI 5th Day,[14]; 120 h,13.02
same,Plant Height (cm) 5th Day,[14]; 120 h,5.95 cm
same,CCI 10th Day,[14]; 240 h,16
same,Plant Height (cm) 10th Day,[14]; 240 h,6.65 cm
same,Root Lenght % Increase over control,[14]; 240 h,37.61%
same,CCI % Increase over pre on 10th Day,[14]; [27],70.21%
same,Plant Height % Increase over pre on 10th Day,[14]; [27],64.20%
same,Root Lenght (cm) 10th Day,[14]; [27],3.77 cm
same,Stem Girth % Increase over pre on 10th Day,[14]; [27],45.00%
same,inhibition of growth at 1 mL or g/L,[15],51.7%
same,mortality at 1 mL or g/L,[16]; [25],28.6%
same,mortality at 1 mL or g/L,[16]; [26],37.5%
same,Total No. of dead insect at 48 Hrs.,[17],3.75
same,% Mortality at 72 Hrs.,[18]; 72 hrs after application,50.00%
same,% Corrected Mortality at 72 Hrs.,[18]; [20],50.00%
same,% Mortality at 72 Hrs.,[19],52.50%
same,% Corrected Mortality at 72 Hrs.,[19]; corrected for water control,52.50%
